PMC7846792, “Perception of a divergent family of phytocytokines by the Arabidopsis receptor kinase MIK2” (Nature Communications, 2021)
No end group written: not given here.

Target: T1, MIK2 ectodomain (MIK2ECD, residues 1–709) (Arabidopsis thaliana, UniProt Q8VZG8)
T1 construct: Arabidopsis thaliana MIK2 (residues 1–709); StrepII-9xHis (TEV-cleavable) (C, cleaved yes); made in house; host or cells: Trichoplusia ni Tnao38 insect cells (baculovirus, modified pFastBac)
T1 sequence (Q8VZG8 44-709): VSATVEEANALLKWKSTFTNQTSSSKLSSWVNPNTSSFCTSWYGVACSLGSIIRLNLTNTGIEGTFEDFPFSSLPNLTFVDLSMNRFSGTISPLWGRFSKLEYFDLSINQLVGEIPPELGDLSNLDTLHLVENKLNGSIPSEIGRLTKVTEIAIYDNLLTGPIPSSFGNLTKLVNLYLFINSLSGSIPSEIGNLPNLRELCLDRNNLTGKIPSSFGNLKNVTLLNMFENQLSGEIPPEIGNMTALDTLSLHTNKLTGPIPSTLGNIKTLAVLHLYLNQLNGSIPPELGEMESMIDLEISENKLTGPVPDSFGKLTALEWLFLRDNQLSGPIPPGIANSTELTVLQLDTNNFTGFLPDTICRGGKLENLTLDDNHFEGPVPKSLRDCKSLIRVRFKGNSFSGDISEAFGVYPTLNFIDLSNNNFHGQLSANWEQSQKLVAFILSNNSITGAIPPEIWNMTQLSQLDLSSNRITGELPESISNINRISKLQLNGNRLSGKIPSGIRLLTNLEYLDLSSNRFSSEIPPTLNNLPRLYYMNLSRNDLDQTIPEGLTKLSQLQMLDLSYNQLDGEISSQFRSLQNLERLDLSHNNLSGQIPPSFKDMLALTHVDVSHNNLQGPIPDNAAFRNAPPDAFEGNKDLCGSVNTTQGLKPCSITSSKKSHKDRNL
Assay: ITC, MIK2 vs SCOOP12
Assay type: binding
Text: ITC data were corrected for the heat of dilution by subtracting the mixing enthalpies for titrant solution injections into protein-free ITC buffer. […] The N values were fitted to 1 in the analysis.

PVRSSQSSQAGGR [SCOOP12] was tested, and the Kd was 4.56 ± 0.299 µM.
